The values that follow come from US20230159445A1, “STAT INHIBITORY COMPOUNDS AND COMPOSITIONS” (JANPIX LIMITED, priority 2020, published 2023).

The subject of one data set is MV4-11 cells. The experiment in a line: MV4-11 Cell Cytotoxicity Assay (CellTiter-Blue, 72 h). In kind it is cell-based, human. The following applies: Homo sapiens; MV4-11 cells, 72 h, CellTiter-Blue; read-out: IC50- MV-4-11. The method in brief:
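Viability read-out: CellTiter-Blue, 1 h, fluorescence 560/590 nm. Preceded by 72 h exposure (37° C, 5% CO2) to twofold dilution series from 50 μM, triplicate, 0.5% DMSO vehicle, applied 24 h after plating.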
For orientation: Resazurin is reduced to fluorescent resorufin, in cell work by metabolically active cells.

Data set [1] is described as follows: Reactivity Profiling with Glutathione (GSH), half-life by HPLC. The following applies: 5 mM glutathione, 25° C., HPLC.
Procedure: 3.5 μL of 5 mM stocking solution of the inhibitors in DMSO was added to 697.5 μL of Iscove's Modified Dulbecco's Medium (IMDM) supplemented with 10% FBS and antibiotic antimycotic solution, with 5 mM glutathione to afford a final concentration of 25 μM inhibitor with 0.5% DMSO. The solution was then immediately placed in the sample tray at 25° C. […] For each inhibitor, its peak is integrated at different time points and compared to the time zero injection in order to obtain a percentage remaining. Half-life is calculated according to a first order reaction kinetic taking into account those time points for which remaining percentage of inhibitor is above 40%, using the formula: t½=Ln(2)/k, where k is the slope of the linear plot of Ln[Inhibitor] vs time, according to the formula: Ln[A]=Ln[A]0−kt, where [A] is the value resulting from the integration at each time point, [A]0 the value at time zero, and t the time. For each inhibitor, both replicates are averaged and the resulting t½ reported.

A word on the IC50: it is the concentration that inhibits the measured activity by half. As to `O=C(O)c1ccc(N(Cc2ccccc2)C(=O)CN(Cc2ccc(Cl)cc2)S(=O)(=O)c2c(F)c(F)c(F)c(F)c2F)cc1O` [Compound 2004, 4-(N-benzyl-2-(N-(4-chlorobenzyl)-(2,3,4,5,6-pentafluorophenyl)sulfon-amido)acetamido)-2-hydroxybenzoic acid], the IC50 with MV4-11 cells lay in the range of 3.16 to 100 µM. The “Tl/2- GSH” value in data set [1] is “D (0.1<D<142)”.
For the molecule `CC(C)(C)c1cc(CN(C(=O)CN(Cc2ccccc2F)S(=O)(=O)c2c(F)c(F)c(F)c(F)c2F)c2ccc(C(=O)O)c(O)c2)cc(C(C)(C)C)n1` [Compound 2015, 4-(N-((2,6-di-tert-butylpyridin-4-yl)methyl)-2-(N-(2-fluorobenzyl)-(2,3,4,5,6-pentafluoro-phenyl)sulfonamido)acetami-do)-2-hydroxybenzoic acid], the IC50 with MV4-11 cells fell in the range of 3.16 to 100 µM. In data set [1], the “Tl/2- GSH” value is recorded as “C (142≤C<247)”.
`CN(C(=O)CN(Cc1ccccc1C(F)(F)F)S(=O)(=O)c1c(F)c(F)c(F)c(F)c1F)c1ccc(C(=O)O)cc1OC1CC1` [Compound 2016, 3-cyclopropoxy-4-(N-methyl-2-(N-(2-(trifluoromethyl)benzyl)-(2,3,4,5,6-pentafluoro-phenyl)sulfonamido)acetami-do)benzoic acid]: the IC50 in the data set with MV4-11 cells was 1 to 3.16 µM. In data set [1], the “Tl/2- GSH” value is reported as “D (0.1<D<142)”.
The like results for `CN(C(=O)CN(Cc1ccccc1C(F)(F)F)S(=O)(=O)c1c(F)c(F)c(F)c(F)c1F)c1ccc(C(=O)O)cc1N1CCOCC1` [Compound 2017, 4-(N-methyl-2-(N-(2-(trifluoromethyl)benzyl)-(2,3,4,5,6-pentafluoro-phenyl)sulfonamido)acetami-do)-3-morpholinobenzoic acid] were, in that order, 1 to 3.16 µM and “D (0.1<D<142)”.
For `CC(C)(C)c1cc(CN(C(=O)CN(Cc2ccc(Cl)cc2)S(=O)(=O)c2c(F)c(F)c(F)c(F)c2F)c2ccc(C(=O)O)c(O)c2)cc(C2CCC2)c1` [Compound 2020, 4-(N-(3-(tert-butyl)-5-cyclobutylbenzyl)-2-(N-(4-chlorobenzyl)-(2,3,4,5,6-pentafluorophenyl)sulfon-amido)acetamido)-2-hydroxybenzoic acid], the concentration for half-maximal inhibition (IC50) in the data set with MV4-11 cells was in the range of 3.16 to 100 µM. In addition, the “Tl/2- GSH” value in data set [1] is “B (247≤B<554)”.
